# B1: pancreatic lipase: pancreas-derived lipase that hydrolyzes the α-position of α,β-diglyceride (protein, UniProt P00591 1-450, looked up)
# Pancreatic triacylglycerol …: SEVCFPRLGCFSDDAPWAGIVQRPLKILPWSPKDVDTRFLLYTNQNQNNYQELVADPSTITNSNFRMDRKTRFIIHGFIDKGEEDWLSNICKNLFKVESVNCICVDWKGGSRTGYTQASQNIRIVGAEVAYFVEVLKSSLGYSPSNVHVIGHSLGSHAAGEAGRRTNGTIERITGLDPAEPCFQGTPELVRLDPSDAKFVDVIHTDAAPIIPNLGFGMSQTVGHLDFFPNGGKQMPGCQKNILSQIVDIDGIWEGTRDFVACNHLRSYKYYADSILNPDGFAGFPCDSYNVFTANKCFPCPSEGCPQMGHYADRFPGKTNGVSQVFYLNTGDASNFARWRYKVSVTLSGKKVTGHILVSLFGNEGNSRQYEIYKGTLQPDNTHSDEFDSDVEVGDLQKVKFIWYNNNVINPTLPRVGASKITVERNDGKVYDFCSQETVREEVLLTLNPC
# Experiments:
# [1] = tested on: monoglyceride lipase of this invention; experiment: Substrate specificity of the monoglyceride lipase; format: biochemical, Bacillus stearothermophilus H-165; conditions: named substance used as substrate
# Procedure: (8) Substrate specificity: The substrate specificity of the monoglyceride lipase of this invention was investigated under conditions which followed the below-described measurement method of enzymatic activity for the monoglyceride lipase of this invention.
# (§1) To 0.4 ml of a reaction solution of the above composition, 50 μl of 10 mM monolaurin (0.5% aqueous solution of "Triton X-100") was added. The resultant mixture was provisionally heated at 37° C. for 2-3 minutes and 50 μl of an enzyme solution was added to initiate a reaction. Exactly 10 minutes later, 2.5 ml of 0.5% SDS (sodium dodecyl suflate) was added to terminate the reaction. The absorbance was measured at a wavelength of 550 nm. Regarding the enzymatic activity, the activity capable of producing 1 μmole of glycerol per minute was defined as 1 Unit (1 U). The following equation will be followed upon calculation of enzymatic activity (potency) by this measurement method of enzymatic activity. [formula] ΔA 550: Absorbance at the wavelength of 500 nm 2.95: Total volume of reaction mixture (ml)
# [2] = tested on: monoglyceride lipase of this invention; experiment: Effects of surface active agents and metal ions on the monoglyceride lipase; format: biochemical, Bacillus stearothermophilus H-165; conditions: for Activity of lipase (%): not added = 100, 10 min
# Procedure: as §1, with “activity.” for “activity. [formula] ΔA 550: Absorbance at the wavelength of 500 nm 2.95: Total volume of reaction mixture (ml)”
# [3] = tested on: monoglyceride lipase of this invention; experiment: Glycerol liberated from α,β-diglycerides by pancreatic lipase plus monoglyceride lipase; format: biochemical, Bacillus stearothermophilus H-165; conditions: for glycerol liberated from the α,β-diglyceride substrate: α-position hydrolyzed by pancreatic lipase, then monoglyceride lipase of this invention on the β-monoglyceride formed
# Procedure: 2) Substrate specificity of the monoglyceride lipase upon use of α,β-diglyceride as a substrate:
# i) The below-described α,β-diglycerides were separately employed as substrates. Their α-positions were hydrolyzed by using pancreatic lipase and the monoglyceride lipase of this invention was caused to act on β-monoglycerides thus formed. Thereafter, glycerol thus liberated was analyzed.
# [4] = Confirmation by HPLC of fatty acid liberated from α-linoleoyl-β-oleoyl-diglyceride; format: biochemical; conditions: 37° C., 10 minutes, pH 8.3; monoglyceride lipase (0.5 U) added to the pancreatic lipase reaction solution
# Procedure: 1) Confirmation of a fatty acid liberated from α-linoleoyl-β-oleoyl-diglyceride as a substrate, by high performance liquid chromatography (HPLC): i) Pancreas-derived lipase (50 μl) was added to 1.0 ml of a reaction solution having a composition of 0.5 mg of α-linoleoyl-β-oleoyl-diglyceride, 1.8 mg of a non-ionic surface active agent ("Triton X-100", trade name; product of Sigma Chemical Company), 3.8 mg of deoxycholic acid, 20 U of colipase, 0.15 mg of calcium chloride, and 200 μl of 0.1 M N-tri(hydroxymethyl) methyl-3-aminopropanesulfonic acid (TAPS)-NaOH (pH 8.3). After allowing them to react at 37° C. for 10 minutes, the reaction was terminated. A 15 μl aliquot of the reaction mixture was applied on a column and was then analyzed by high performance liquid chromatography under the following conditions.
# Column: "Zorbox ODS" (trade name; 4.6 mm.phi.×25 cm)
# Solvent: acetonitrile:H2 O (96:4)
# Detection: ultraviolet absorption at 205 nm […]
# ii) The monoglyceride lipase (0.5 U) was added to a reaction solution of the same composition as that employed above. A fatty acid liberated in substantially the same manner was detected by high performance liquid chromatography. As a result, linoleic acid and oleic acid were confirmed at the retention times of 23 minutes and 31 minutes respectively.
molecule,measurement,setting,value
"CCCCC/C=C\C/C=C\CCCCCCCC(=O)OCC(CO)OC(=O)CCCCCCC/C=C\C/C=C\CCCCC (stereo not shown) [1,2-dilinolein]",glycerol hydrolyzed from the substrate in the presence of the monoglyceride lipase,[1],not detected
"CCCCC/C=C\C/C=C\CCCCCCCC(=O)OCC(O)COC(=O)CCCCCCC/C=C\C/C=C\CCCCC [1,3-dilinolein]",glycerol hydrolyzed from the substrate in the presence of the monoglyceride lipase,[1],not detected
[Ca+2].[Cl-].[Cl-] [CaCl2],effect of addition on the activity of the monoglyceride lipase (in words),[2],not affected
C[C@H](CCC(=O)O)[C@H]1CC[C@H]2[C@@H]3[C@H](O)C[C@@H]4C[C@H](O)CC[C@]4(C)[C@H]3C[C@H](O)[C@]12C [Cholic acid],effect of addition on the activity of the monoglyceride lipase (in words),[2],inhibition of the activity is observed in a high concentration range
[Cl-].[Cl-].[Mg+2] [MgCl2],effect of addition on the activity of the monoglyceride lipase (in words),[2],not affected
CCCCCCCCCCCC(=O)OCC(O)CO (stereo not shown) [Monolaurin],activity against the substrate (in words),[1],maximum activity
"CCCCCCCC/C=C\CCCCCCCC(=O)OC(CO)CO [Monoolein (β-monoglyceride), Monoolein]",Activity of lipase (%),[1]; Monolaurin = 100.0,75.6%
CCCCCCCC/C=C\CCCCCCCC(=O)OCC(COC(=O)CCCCCCC/C=C\CCCCCCCC)OC(=O)CCCCCCC/C=C\CCCCCCCC [Triolein],glycerol hydrolyzed from the substrate in the presence of the monoglyceride lipase,[1],not detected
"CCCCC/C=C\C/C=C\CCCCCCCC(=O)OCC(CO)OC(=O)CCCCCCC/C=C\C/C=C\CCCCC (stereo not drawn) [α,β-dilinoleylglyceride]","glycerol liberated from the α,β-diglyceride substrate",[3],glycerol was detected
CCCCCCCC/C=C\CCCCCCCC(=O)OCC(CO)OC(=O)CCCCCCCCCCCCCCC (stereo not drawn) [α-oleyl-β-palmitoyldiglyceride],"glycerol liberated from the α,β-diglyceride substrate",[3],glycerol was detected
CCCCCCCC/C=C\CCCCCCCC(=O)OC(CO)COC(=O)CCCCCCCCCCCCCCC (stereo not drawn) [α-palmitoyl-β-oleoyldiglyceride],"glycerol liberated from the α,β-diglyceride substrate",[3],glycerol was detected
Triton X-100,effect of addition on the activity of the monoglyceride lipase (in words),[2],inhibition of the activity is observed in a high concentration range
same,Activity of lipase (%),[2]; reagent concentration 0.1%,81.7%
same,Activity of lipase (%),[2]; reagent concentration 0.5%,46.5%
B1,"glycerol liberated from the α,β-diglyceride substrates",[3]; pancreatic lipase used singly,glycerol was not detected
same,"position of α,β-diglyceride / monoglyceride acted on, from the fatty acid liberated",[4],"act on the α-position of α,β-diglyceride"

# — patent publication US5162201A, “Analytical method making use of monoglyceride lipase” (priority 1987, dated 1992)
